# Laboratory results reported in patent publication US10815276B2, “Cell penetrating peptides and methods of making and using thereof” (Entrada Therapeutics, Inc., priority 2014, dated 2020).
# Starred links: 1 amine or outer side, 2 acyl side, 3 side chain; linkers in the order of their positions; H or OH if unused. Positions of bridges follow the written chain, without caps; N, C: chain ends. Non-standard residues stand in square brackets, D forms with d. Residues, ends and D or L forms follow the SMILES beside them. Trimesoyl = O=C(c1cc(C(=O)[*:2])cc(C(=O)[*:3])c1)[*:1]; Phe(3,4-F2) = N[C@@H](Cc1ccc(F)c(F)c1)C(=O)O; dPhe(4-CN) = N#Cc1ccc(C[C@@H](N)C(=O)O)cc1; Phe(4-F) = N[C@@H](Cc1ccc(F)cc1)C(=O)O; dPhe(3-F) = N[C@H](Cc1cccc(F)c1)C(=O)O; 2Nal = N[C@@H](Cc1ccc2ccccc2c1)C(=O)O; dPhe(2-F) = N[C@H](Cc1ccccc1F)C(=O)O; Pip = O=C(O)[C@@H]1CCCCN1; Dap = NC[C@H](N)C(=O)O; Sar = CNCC(=O)O
# Target: T1, Pin1 (Homo sapiens, UniProt Q13526, S16A/Y23A)
# T1 construct: The full-length human S16A/Y23A mutant Pin1 was expressed and purified from E. coli; made in house
# T1 sequence (Q13526 whole entry S16A/Y23A): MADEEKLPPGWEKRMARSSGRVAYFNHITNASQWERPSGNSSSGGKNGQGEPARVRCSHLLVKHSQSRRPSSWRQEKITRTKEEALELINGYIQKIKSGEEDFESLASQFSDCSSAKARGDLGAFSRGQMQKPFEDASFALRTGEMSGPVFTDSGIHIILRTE
# Test: Pin1 binding by FA (FITC-labeled peptides)
# Settings: FITC-labeled peptide, FA; read-out: KD
row,SMILES,Kd [nM]
1,"C[C@H]1NC(=O)[C@H](Cc2ccc(O)cc2)NC(=O)[C@H](CCCNC(=N)N)NC(=O)[C@H](Cc2ccc3ccccc3c2)NC(=O)[C@@H]2CCCCN2C(=O)[C@@H](CC(=O)O)NC(=O)CN(C)C(=O)[C@@H]2CCCN2C(=O)c2cc3cc(c2)C(=O)NC[C@H](NC1=O)C(=O)N[C@@H](Cc1ccccc1)C(=O)N[C@@H](Cc1ccc2ccccc2c1)C(=O)N[C@@H](CCCNC(=N)N)C(=O)N[C@@H](CCCNC(=N)N)C(=O)N[C@@H](CCCNC(=N)N)C(=O)N[C@@H](CCCNC(=N)N)C(=O)N[C@H](C(=O)N[C@@H](CCCCN)C(N)=O)CNC3=O [Peptide 17, bicyclo[Tm-(Pro-Sar-D-Asp-Pip-Nal-Arg-Tyr-D-Ala)-Dap-(Phe-Nal-Arg-Arg-Arg-Arg-Dap)]-Lys] (P[Sar][dD][Pip][2Nal]RY[dA][Dap]F[2Nal]RRRR[Dap]K-NH2; linker N-9-16 via Trimesoyl; C-terminus assumed)",2170 ± 550
2,"C[C@@H]1NC(=O)[C@H](CCCNC(=N)N)NC(=O)[C@H](Cc2ccc3ccccc3c2)NC(=O)[C@@H]2CCCCN2C(=O)[C@@H]([C@H](C)O)NC(=O)[C@H](Cc2ccc(F)cc2)NC(=O)[C@@H](Cc2ccccc2)NC(=O)c2cc3cc(c2)C(=O)NC[C@H](NC(=O)[C@@H](Cc2ccccc2)NC1=O)C(=O)N[C@@H](Cc1ccccc1)C(=O)N[C@@H](Cc1ccc2ccccc2c1)C(=O)N[C@@H](CCCNC(=N)N)C(=O)N[C@@H](CCCNC(=N)N)C(=O)N[C@@H](CCCNC(=N)N)C(=O)N[C@@H](CCCNC(=N)N)C(=O)N[C@H](C(=O)N[C@@H](CCCCN)C(N)=O)CNC3=O [Peptide 27, bicyclo[Tm-(D-Phe-4-Fpa-D-Thr-Pip-Nal-Arg-Ala-D-Phe)-Dap-(Phe-Nal-Arg-Arg-Arg-Arg-Dap)]-Lys] ([dF][Phe(4-F)][dT][Pip][2Nal]RA[dF][Dap]F[2Nal]RRRR[Dap]K-NH2; linker N-9-16 via Trimesoyl; C-terminus assumed)",270
3,"CC(C)[C@H]1NC(=O)c2cc3cc(c2)C(=O)NC[C@H](NC(=O)[C@@H](C)NC(=O)[C@H](C)NC(=O)[C@H](CCCNC(=N)N)NC(=O)[C@H](Cc2ccc4ccccc4c2)NC(=O)[C@@H]2CCCCN2C(=O)[C@@H]([C@H](C)O)NC(=O)[C@H](Cc2ccc(F)cc2)NC1=O)C(=O)N[C@@H](Cc1ccccc1)C(=O)N[C@@H](Cc1ccc2ccccc2c1)C(=O)N[C@@H](CCCNC(=N)N)C(=O)N[C@@H](CCCNC(=N)N)C(=O)N[C@@H](CCCNC(=N)N)C(=O)N[C@@H](CCCNC(=N)N)C(=O)N[C@H](C(=O)N[C@@H](CCCCN)C(N)=O)CNC3=O [Peptide 34, bicyclo[Tm-(D-Val-4-Fpa-D-Thr-Pip-Nal-Arg-Ala-D-Ala)-Dap-(Phe-Nal-Arg-Arg-Arg-Arg-Dap)]-Lys] ([dV][Phe(4-F)][dT][Pip][2Nal]RA[dA][Dap]F[2Nal]RRRR[Dap]K-NH2; linker N-9-16 via Trimesoyl; C-terminus assumed)",1070 ± 160
4,"C[C@@H]1NC(=O)[C@H](CCCNC(=N)N)NC(=O)[C@H](Cc2ccc3ccccc3c2)NC(=O)[C@@H]2CCCCN2C(=O)[C@@H]([C@H](C)O)NC(=O)[C@H](Cc2ccc(F)c(F)c2)NC(=O)[C@@H](Cc2ccccc2)NC(=O)c2cc3cc(c2)C(=O)NC[C@H](NC(=O)[C@@H](Cc2ccccc2)NC1=O)C(=O)N[C@@H](Cc1ccccc1)C(=O)N[C@@H](Cc1ccc2ccccc2c1)C(=O)N[C@@H](CCCNC(=N)N)C(=O)N[C@@H](CCCNC(=N)N)C(=O)N[C@@H](CCCNC(=N)N)C(=O)N[C@@H](CCCNC(=N)N)C(=O)N[C@H](C(=O)N[C@@H](CCCCN)C(N)=O)CNC3=O [Peptide 29, bicyclo[Tm-(D-Phe-3,4-diFPhe-D-Thr-Pip-Nal-Arg-Ala-D-Phe)-Dap-(Phe-Nal-Arg-Arg-Arg-Arg-Dap)]-Lys] ([dF][Phe(3,4-F2)][dT][Pip][2Nal]RA[dF][Dap]F[2Nal]RRRR[Dap]K-NH2; linker N-9-16 via Trimesoyl; C-terminus assumed)",410 ± 100
5,"C[C@@H]1NC(=O)[C@H](CCCNC(=N)N)NC(=O)[C@H](Cc2ccc3ccccc3c2)NC(=O)[C@@H]2CCCCN2C(=O)[C@@H](CC(=O)O)NC(=O)CN(C)C(=O)[C@@H]2CCCN2C(=O)c2cc3cc(c2)C(=O)NC[C@H](NC(=O)[C@@H](C)NC(=O)[C@@H](C)NC1=O)C(=O)N[C@@H](Cc1ccccc1)C(=O)N[C@@H](Cc1ccc2ccccc2c1)C(=O)N[C@@H](CCCNC(=N)N)C(=O)N[C@@H](CCCNC(=N)N)C(=O)N[C@@H](CCCNC(=N)N)C(=O)N[C@@H](CCCNC(=N)N)C(=O)N[C@H](C(=O)N[C@@H](CCCCN)C(N)=O)CNC3=O [Peptide 16, bicyclo[Tm-(Pro-Sar-D-Asp-Pip-Nal-Arg-Ala-D-Ala-D-Ala)-Dap-(Phe-Nal-Arg-Arg-Arg-Arg-Dap)]-Lys] (P[Sar][dD][Pip][2Nal]RA[dA][dA][Dap]F[2Nal]RRRR[Dap]K-NH2; linker N-10-17 via Trimesoyl; C-terminus assumed)",2490 ± 570
6,"C[C@H](O)[C@H]1NC(=O)[C@H](Cc2ccc(F)cc2)NC(=O)[C@@H](Cc2ccccc2)NC(=O)c2cc3cc(c2)C(=O)NC[C@H](NC(=O)[C@@H](C)NC(=O)CNC(=O)[C@H](CCCNC(=N)N)NC(=O)[C@H](Cc2ccc4ccccc4c2)NC(=O)[C@@H]2CCCCN2C1=O)C(=O)N[C@@H](Cc1ccccc1)C(=O)N[C@@H](Cc1ccc2ccccc2c1)C(=O)N[C@@H](CCCNC(=N)N)C(=O)N[C@@H](CCCNC(=N)N)C(=O)N[C@@H](CCCNC(=N)N)C(=O)N[C@@H](CCCNC(=N)N)C(=O)N[C@H](C(=O)N[C@@H](CCCCN)C(N)=O)CNC3=O [Peptide 26, bicyclo[Tm-(D-Phe-4-Fpa-D-Thr-Pip-Nal-Arg-Gly-D-Ala)-Dap-(Phe-Nal-Arg-Arg-Arg-Arg-Dap)]-Lys] ([dF][Phe(4-F)][dT][Pip][2Nal]RG[dA][Dap]F[2Nal]RRRR[Dap]K-NH2; linker N-9-16 via Trimesoyl; C-terminus assumed)",740 ± 110

# Other lines, results leading:
row,Kd [nM],SMILES
1,390 ± 50,"C[C@@H]1NC(=O)[C@H](CCCNC(=N)N)NC(=O)[C@H](Cc2ccc3ccccc3c2)NC(=O)[C@@H]2CCCCN2C(=O)[C@@H]([C@H](C)O)NC(=O)[C@H](Cc2ccc(F)cc2)NC(=O)[C@@H](Cc2cccc(F)c2)NC(=O)c2cc3cc(c2)C(=O)NC[C@H](NC(=O)[C@@H](Cc2ccccc2)NC1=O)C(=O)N[C@@H](Cc1ccccc1)C(=O)N[C@@H](Cc1ccc2ccccc2c1)C(=O)N[C@@H](CCCNC(=N)N)C(=O)N[C@@H](CCCNC(=N)N)C(=O)N[C@@H](CCCNC(=N)N)C(=O)N[C@@H](CCCNC(=N)N)C(=O)N[C@H](C(=O)N[C@@H](CCCCN)C(N)=O)CNC3=O [Peptide 36, bicyclo[Tm-(D-3-Fpa-Fpa-D-Thr-Pip-Nal-Arg-Ala-D-Phe)-Dap-(Phe-Nal-Arg-Arg-Arg-Arg-Dap)]-Lys] ([dPhe(3-F)][Phe(4-F)][dT][Pip][2Nal]RA[dF][Dap]F[2Nal]RRRR[Dap]K-NH2; linker N-9-16 via Trimesoyl; C-terminus assumed)"
2,450 ± 50,"C[C@@H]1NC(=O)[C@H](CCCNC(=N)N)NC(=O)[C@H](Cc2ccc3ccccc3c2)NC(=O)[C@@H]2CCCCN2C(=O)[C@@H]([C@H](C)O)NC(=O)[C@H](Cc2ccc(F)cc2)NC(=O)[C@@H](Cc2ccccc2)NC(=O)c2cc3cc(c2)C(=O)NC[C@H](NC(=O)[C@@H](Cc2ccccc2)NC1=O)C(=O)N[C@@H](CCCNC(=N)N)C(=O)N[C@@H](Cc1ccc2ccccc2c1)C(=O)N[C@@H](CCCNC(=N)N)C(=O)N[C@@H](Cc1ccccc1)C(=O)N[C@@H](CCCNC(=N)N)C(=O)N[C@@H](CCCNC(=N)N)C(=O)N[C@H](C(=O)N[C@@H](CCCCN)C(N)=O)CNC3=O [Peptide 44, bicyclo[Tm-(D-Phe-Fpa-D-Thr-Pip-Nal-Arg-Ala-D-Phe)-Dap-(Arg-Nal-Arg-Phe-Arg-Arg-Dap)]-Lys] ([dF][Phe(4-F)][dT][Pip][2Nal]RA[dF][Dap]R[2Nal]RFRR[Dap]K-NH2; linker N-9-16 via Trimesoyl; C-terminus assumed)"
3,590 ± 50,"C[C@@H]1NC(=O)[C@H](CCCNC(=N)N)NC(=O)[C@H](Cc2ccc3ccccc3c2)NC(=O)[C@@H]2CCCCN2C(=O)[C@@H]([C@H](C)O)NC(=O)[C@H](Cc2ccc(F)cc2)NC(=O)[C@@H](Cc2ccccc2F)NC(=O)c2cc3cc(c2)C(=O)NC[C@H](NC(=O)[C@@H](Cc2ccccc2)NC1=O)C(=O)N[C@@H](Cc1ccccc1)C(=O)N[C@@H](Cc1ccc2ccccc2c1)C(=O)N[C@@H](CCCNC(=N)N)C(=O)N[C@@H](CCCNC(=N)N)C(=O)N[C@@H](CCCNC(=N)N)C(=O)N[C@@H](CCCNC(=N)N)C(=O)N[C@H](C(=O)N[C@@H](CCCCN)C(N)=O)CNC3=O [Peptide 35, bicyclo[Tm-(D-2-Fpa-Fpa-D-Thr-Pip-Nal-Arg-Ala-D-Phe)-Dap-(Phe-Nal-Arg-Arg-Arg-Arg-Dap)]-Lys] ([dPhe(2-F)][Phe(4-F)][dT][Pip][2Nal]RA[dF][Dap]F[2Nal]RRRR[Dap]K-NH2; linker N-9-16 via Trimesoyl; C-terminus assumed)"
4,350 ± 40,"C[C@@H]1NC(=O)[C@H](CCCNC(=N)N)NC(=O)[C@H](Cc2ccc3ccccc3c2)NC(=O)[C@@H]2CCCCN2C(=O)[C@@H]([C@H](C)O)NC(=O)[C@H](Cc2ccc(F)cc2)NC(=O)[C@@H](Cc2ccc(C#N)cc2)NC(=O)c2cc3cc(c2)C(=O)NC[C@H](NC(=O)[C@@H](Cc2ccccc2)NC1=O)C(=O)N[C@@H](Cc1ccccc1)C(=O)N[C@@H](Cc1ccc2ccccc2c1)C(=O)N[C@@H](CCCNC(=N)N)C(=O)N[C@@H](CCCNC(=N)N)C(=O)N[C@@H](CCCNC(=N)N)C(=O)N[C@@H](CCCNC(=N)N)C(=O)N[C@H](C(=O)N[C@@H](CCCCN)C(N)=O)CNC3=O [Peptide 38, bicyclo[Tm-(D-4-CyanoPhe-Fpa-D-Thr-Pip-Nal-Arg-Ala-D-Phe)-Dap-(Phe-Nal-Arg-Arg-Arg-Arg-Dap)]-Lys] ([dPhe(4-CN)][Phe(4-F)][dT][Pip][2Nal]RA[dF][Dap]F[2Nal]RRRR[Dap]K-NH2; linker N-9-16 via Trimesoyl; C-terminus assumed)"

# Same assay, conditions: peptide 22 vs 3; peptide 27 vs 4
row,Improvement of Pin1 binding by D-Phe for D-Ala vs parent peptide [fold],SMILES
1,~2,"C[C@@H]1NC(=O)[C@H](CCCNC(=N)N)NC(=O)[C@H](Cc2ccc3ccccc3c2)NC(=O)[C@@H]2CCCCN2C(=O)[C@@H]([C@H](C)O)NC(=O)[C@H](Cc2ccc(F)cc2)NC(=O)[C@@H](Cc2ccccc2)NC(=O)c2cc3cc(c2)C(=O)NC[C@H](NC(=O)[C@@H](Cc2ccccc2)NC1=O)C(=O)N[C@@H](Cc1ccccc1)C(=O)N[C@@H](Cc1ccc2ccccc2c1)C(=O)N[C@@H](CCCNC(=N)N)C(=O)N[C@@H](CCCNC(=N)N)C(=O)N[C@@H](CCCNC(=N)N)C(=O)N[C@@H](CCCNC(=N)N)C(=O)N[C@H](C(=O)N[C@@H](CCCCN)C(N)=O)CNC3=O [Peptide 27, bicyclo[Tm-(D-Phe-4-Fpa-D-Thr-Pip-Nal-Arg-Ala-D-Phe)-Dap-(Phe-Nal-Arg-Arg-Arg-Arg-Dap)]-Lys] ([dF][Phe(4-F)][dT][Pip][2Nal]RA[dF][Dap]F[2Nal]RRRR[Dap]K-NH2; linker N-9-16 via Trimesoyl; C-terminus assumed)"
